Results published in ChEMBL document CHEMBL5584231, “Rational design of a new short anticancer peptide with good potential for cancer treatment” (Eur J Med Chem, 2024).
Residues, ends and D or L forms follow the SMILES beside them.

Key:
[1] = system: HeLa; assay: Cytotoxicity against human HeLa cells assessed as inhibition of cell growth incubated for 1 hr by MTT assay; assay type: functional, cell-based
[2] = system: MCF7; assay: Cytotoxicity against human MCF7 cells assessed as inhibition of cell growth incubated for 1 hr by MTT assay; assay type: functional, cell-based; conditions: MCF7, 1 h
[3] = Cytotoxicity against RG cells (unknown origin) assessed as inhibition of cell growth incubated for 1 hr by MTT assay; assay type: functional, cell-based
[4] = system: A549; assay: Cytotoxicity against human A549 cells assessed as inhibition of cell growth incubated for 1 hr by MTT assay; assay type: functional, cell-based; conditions: A549, 1 h
[5] = Cytotoxicity against HK-2 cells assessed as inhibition of cell growth incubated for 1 hr by MTT assay; assay type: toxicity, cell-based; conditions: human
[6] = Therapeutic index, ratio of HC10 for mouse RBC to IC50 for cytotoxicity against human HeLa cells; assay type: toxicity, cell-based; conditions: mouse RBC and HeLa cells, read-out: TI
[7] = Therapeutic index, ratio of HC10 for mouse RBC to IC50 for cytotoxicity against human MCF7 cells; assay type: toxicity, cell-based; conditions: mouse RBC and MCF7 cells, read-out: TI
[8] = Therapeutic index, ratio of HC10 for mouse RBC to IC50 for cytotoxicity against RG cells (unknown origin); assay type: toxicity, cell-based; conditions: mouse RBC and RG cells, read-out: TI
[9] = Therapeutic index, ratio of HC10 for mouse RBC to IC50 for cytotoxicity against human A549 cells; assay type: toxicity, cell-based; conditions: mouse RBC and A549 cells, read-out: TI

SMILES | IC50 [1] | IC50 [2] | IC50 [3] | IC50 [4] | IC50 at 1 h [5] | selectivity ratio [6] | selectivity ratio [7] | selectivity ratio [8] | selectivity ratio [9]
CC(C)C[C@H](NC(=O)[C@H](CC(C)C)NC(=O)[C@H](CCC(=O)O)NC(=O)[C@H](CCCCN)NC(=O)[C@H](CC(C)C)NC(=O)[C@H](CC(C)C)NC(=O)[C@H](CCCCN)NC(=O)[C@H](CCCCN)NC(=O)[C@H](CC(C)C)NC(=O)[C@H](CC(C)C)NC(=O)[C@H](CCCCN)NC(=O)[C@H](CCCCN)NC(=O)[C@H](CC(C)C)NC(=O)[C@@H](N)CC(C)C)C(N)=O (H-LLKKLLKKLLKELL-NH2) | 14.7 µM | 11.8 µM | 6.16 µM | 10.9 µM | 10.8 µM | 0.352 | 0.438 | 0.838 | 0.474
CC(C)C[C@H](NC(=O)[C@H](CCCCN)NC(=O)[C@H](CC(C)C)NC(=O)[C@H](CC(C)C)NC(=O)[C@H](CCCCN)NC(=O)[C@H](CCCCN)NC(=O)[C@H](CC(C)C)NC(=O)[C@H](CC(C)C)NC(=O)[C@H](CCCCN)NC(=O)[C@H](CCCCN)NC(=O)[C@H](CC(C)C)NC(=O)[C@H](CC(C)C)NC(=O)[C@H](CCCCN)NC(=O)[C@@H](N)CCCCN)C(N)=O (H-KKLLKKLLKKLLKL-NH2) | 7.85 µM | 12.5 µM | 12.1 µM | 8.71 µM | 8.91 µM | 10.3 | 6.5 | 6.72 | 9.31
CC(C)C[C@H](NC(=O)[C@H](CC(C)C)NC(=O)[C@H](CCCCN)NC(=O)[C@H](CCCCN)NC(=O)[C@H](CC(C)C)NC(=O)[C@H](CC(C)C)NC(=O)[C@H](CCCCN)NC(=O)[C@H](CCCCN)NC(=O)[C@H](CC(C)C)NC(=O)[C@H](CC(C)C)NC(=O)[C@H](CCCCN)NC(=O)[C@H](CCCCN)NC(=O)[C@H](CCC(=O)O)NC(=O)[C@@H](N)CC(C)C)C(N)=O (H-LEKKLLKKLLKKLL-NH2) | 25.8 µM | 51.2 µM | 46.4 µM | 49.4 µM | 59.2 µM | 4.62 | 2.33 | 2.58 | 2.42
CC(C)C[C@H](NC(=O)[C@H](CC(C)C)NC(=O)[C@H](CCCCN)NC(=O)[C@H](CCCCN)NC(=O)[C@H](CCC(=O)O)NC(=O)[C@H](CC(C)C)NC(=O)[C@H](CCCCN)NC(=O)[C@H](CCCCN)NC(=O)[C@H](CC(C)C)NC(=O)[C@H](CC(C)C)NC(=O)[C@H](CCCCN)NC(=O)[C@H](CCCCN)NC(=O)[C@H](CC(C)C)NC(=O)[C@@H](N)CC(C)C)C(N)=O (H-LLKKLLKKLEKKLL-NH2) | 43.7 µM | 97.1 µM | 78.9 µM | 87.1 µM | 92.5 µM | 11.4 | 5.15 | 6.34 | 5.74
CC(C)C[C@H](NC(=O)[C@H](CC(C)C)NC(=O)[C@H](CCCCN)NC(=O)[C@H](CCCCN)NC(=O)[C@H](CC(C)C)NC(=O)[C@H](CC(C)C)NC(=O)[C@H](CCC(=O)O)NC(=O)[C@H](CCCCN)NC(=O)[C@H](CC(C)C)NC(=O)[C@H](CC(C)C)NC(=O)[C@H](CCCCN)NC(=O)[C@H](CCCCN)NC(=O)[C@H](CC(C)C)NC(=O)[C@@H](N)CC(C)C)C(N)=O (H-LLKKLLKELLKKLL-NH2) | 4.54 µM | 3.95 µM | 4.74 µM | 3.75 µM | 3.8 µM | 1.15 | 1.32 | 1.1 | 1.39
CC(C)C[C@H](NC(=O)[C@H](CC(C)C)NC(=O)[C@H](CCCCN)NC(=O)[C@H](CCCCN)NC(=O)[C@H](CC(C)C)NC(=O)[C@H](CC(C)C)NC(=O)[C@H](CCCCN)NC(=O)[C@H](CCC(=O)O)NC(=O)[C@H](CC(C)C)NC(=O)[C@H](CC(C)C)NC(=O)[C@H](CCCCN)NC(=O)[C@H](CCCCN)NC(=O)[C@H](CC(C)C)NC(=O)[C@@H](N)CC(C)C)C(N)=O (H-LLKKLLEKLLKKLL-NH2) | 2.87 µM | 4.67 µM | 4.5 µM | 3.93 µM | 4.9 µM | 3.41 | 2.1 | 2.18 | 2.49
CC(C)C[C@H](NC(=O)[C@H](CCCCN)NC(=O)[C@H](CCCCN)NC(=O)[C@H](CC(C)C)NC(=O)[C@H](CC(C)C)NC(=O)[C@H](CCCCN)NC(=O)[C@H](CCCCN)NC(=O)[C@H](CC(C)C)NC(=O)[C@H](CC(C)C)NC(=O)[C@H](CCCCN)NC(=O)[C@H](CCCCN)NC(=O)[C@H](CC(C)C)NC(=O)[C@@H](N)CC(C)C)C(=O)N[C@@H](CC(=O)O)C(N)=O (H-LLKKLLKKLLKKLD-NH2) | 12.1 µM | 30.7 µM | 32.8 µM | 18.8 µM | 50.3 µM | 31.1 | 12.2 | 11.4 | 20
CC(C)C[C@H](NC(=O)[C@H](CCCCN)NC(=O)[C@H](CC(C)C)NC(=O)[C@H](CC(C)C)NC(=O)[C@H](CCCCN)NC(=O)[C@H](CCCCN)NC(=O)[C@H](CC(C)C)NC(=O)[C@H](CC(C)C)NC(=O)[C@H](CCCCN)NC(=O)[C@H](CCCCN)NC(=O)[C@H](CC(C)C)NC(=O)[C@H](CC(C)C)NC(=O)[C@H](CCCCN)NC(=O)[C@H](CCCCN)NC(=O)[C@H](CC(C)C)NC(=O)[C@H](CC(C)C)NC(=O)[C@@H](N)CCCCN)C(N)=O (H-KLLKKLLKKLLKKLLKL-NH2) | 2.68 µM | 6.19 µM | 7.88 µM | 4.06 µM | 5.35 µM | 1.2 | 0.517 | 0.406 | 0.787
CC(C)C[C@H](NC(=O)[C@H](CC(C)C)NC(=O)[C@H](CCCCN)NC(=O)[C@H](CCCCN)NC(=O)[C@H](CC(C)C)NC(=O)[C@H](CC(C)C)NC(=O)[C@H](CCCCN)NC(=O)[C@H](CCCCN)NC(=O)[C@H](CC(C)C)NC(=O)[C@H](CCC(=O)O)NC(=O)[C@H](CCCCN)NC(=O)[C@H](CCCCN)NC(=O)[C@H](CC(C)C)NC(=O)[C@@H](N)CC(C)C)C(N)=O (H-LLKKELKKLLKKLL-NH2) | 14.4 µM | 21.4 µM | 24.1 µM | 17.3 µM | 37.3 µM | 12 | 8.02 | 7.14 | 9.94
CC(C)C[C@H](NC(=O)[C@H](CCCCN)NC(=O)[C@H](CC(C)C)NC(=O)[C@H](CC(C)C)NC(=O)[C@H](CCCCN)NC(=O)[C@H](CCCCN)NC(=O)[C@H](CC(C)C)NC(=O)[C@H](CC(C)C)NC(=O)[C@H](CCCCN)NC(=O)[C@H](CCCCN)NC(=O)[C@H](CC(C)C)NC(=O)[C@H](CC(C)C)NC(=O)[C@H](CCCCN)NC(=O)[C@H](CCCCN)NC(=O)[C@H](CC(C)C)NC(=O)[C@H](CC(C)C)NC(=O)[C@H](CCCCN)NC(=O)[C@@H](N)CCCCN)C(N)=O (H-KKLLKKLLKKLLKKLLKL-NH2) | 3.45 µM | 5.88 µM | 9.04 µM | 5.61 µM | 15.1 µM | 1.8 | 1.05 | 0.686 | 1.11
CC(C)C[C@H](NC(=O)[C@H](CCC(=O)O)NC(=O)[C@H](CCCCN)NC(=O)[C@H](CCCCN)NC(=O)[C@H](CC(C)C)NC(=O)[C@H](CC(C)C)NC(=O)[C@H](CCCCN)NC(=O)[C@H](CCCCN)NC(=O)[C@H](CC(C)C)NC(=O)[C@H](CC(C)C)NC(=O)[C@H](CCCCN)NC(=O)[C@H](CCCCN)NC(=O)[C@H](CC(C)C)NC(=O)[C@@H](N)CC(C)C)C(N)=O (H-LLKKLLKKLLKKEL-NH2) | 32.2 µM | 101 µM | 75.9 µM | 75.3 µM | 73 µM | 13.7 | 4.38 | 5.81 | 5.86
CC(C)C[C@H](NC(=O)[C@H](CCCCN)NC(=O)[C@H](CC(C)C)NC(=O)[C@H](CC(C)C)NC(=O)[C@H](CCCCN)NC(=O)[C@H](CCCCN)NC(=O)[C@H](CC(C)C)NC(=O)[C@H](CC(C)C)NC(=O)[C@H](CCCCN)NC(=O)[C@H](CCCCN)NC(=O)[C@H](CC(C)C)NC(=O)[C@H](CC(C)C)NC(=O)[C@@H](N)CCCCN)C(N)=O (H-KLLKKLLKKLLKL-NH2) | 8.14 µM | 10.5 µM | 11.1 µM | 9.08 µM | 9.65 µM | 6.79 | 5.27 | 4.98 | 6.09
CC(C)C[C@H](NC(=O)[C@H](CC(C)C)NC(=O)[C@H](CCCCN)NC(=O)[C@H](CCCCN)NC(=O)[C@H](CC(C)C)NC(=O)[C@H](CC(C)C)NC(=O)[C@H](CCCCN)NC(=O)[C@H](CCCCN)NC(=O)[C@H](CC(C)C)NC(=O)[C@H](CC(C)C)NC(=O)[C@H](CCCCN)NC(=O)[C@H](CC(C)C)NC(=O)[C@H](CC(C)C)NC(=O)[C@@H](N)CCCCN)C(N)=O (H-KLLKLLKKLLKKLL-NH2) | 11.9 µM | 58.4 µM | 34.3 µM | 15.4 µM | 28.1 µM | 0.629 | 0.129 | 0.219 | 0.486
